Results from ChEMBL document CHEMBL1148595, “Identification of Darmstoff analogs as selective agonists and antagonists of lysophosphatidic acid receptors” (Bioorg Med Chem Lett, 2006).

Tests used:
[1] = biological target: Lysophosphatidic acid receptor 1 (Rattus norvegicus, UniProt P61794); test: Activity at LPA1 receptor in RH7777 rat hepatoma cell line
[2] = biological target: Lysophosphatidic acid receptor 2 (Homo sapiens, UniProt Q9HBW0); test: Activity at LPA2 receptor in RH7777 rat hepatoma cell line; assay type: cell-based
Chain of Lysophosphatidic acid receptor 2 (Q9HBW0 whole entry): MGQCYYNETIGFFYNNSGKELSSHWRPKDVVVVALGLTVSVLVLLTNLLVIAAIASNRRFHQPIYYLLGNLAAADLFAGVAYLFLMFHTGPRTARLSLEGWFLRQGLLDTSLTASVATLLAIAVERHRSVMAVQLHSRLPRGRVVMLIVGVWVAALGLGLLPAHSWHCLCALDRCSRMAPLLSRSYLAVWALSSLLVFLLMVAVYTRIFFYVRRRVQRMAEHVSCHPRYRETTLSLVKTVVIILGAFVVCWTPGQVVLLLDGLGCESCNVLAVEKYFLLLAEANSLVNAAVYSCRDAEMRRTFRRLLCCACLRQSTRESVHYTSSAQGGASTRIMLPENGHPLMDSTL

[3] = biological target: T1, Lysophosphatidic acid receptor 3 (Rattus norvegicus) (UniProt Q8K5E0); test: (§1) Activity at LPA3 receptor in RH7777 rat hepatoma cell line; assay type: cell-based
T1 sequence (whole entry): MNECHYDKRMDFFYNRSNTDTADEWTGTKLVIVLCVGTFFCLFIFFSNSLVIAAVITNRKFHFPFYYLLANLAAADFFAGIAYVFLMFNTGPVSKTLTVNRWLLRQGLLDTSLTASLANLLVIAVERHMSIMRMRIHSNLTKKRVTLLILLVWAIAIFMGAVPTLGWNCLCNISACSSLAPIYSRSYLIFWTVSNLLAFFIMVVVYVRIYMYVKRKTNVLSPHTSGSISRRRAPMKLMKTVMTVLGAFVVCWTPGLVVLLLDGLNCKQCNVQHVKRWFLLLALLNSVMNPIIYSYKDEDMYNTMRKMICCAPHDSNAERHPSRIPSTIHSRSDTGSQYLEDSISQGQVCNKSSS

[4] = biological target: T2, Lysophosphatidic acid receptor 3 (Rattus norvegicus, UniProt Q8K5E0); test: as §1; assay type: cell-based
T2 sequence (Q8K5E0 whole entry): T1 sequence (whole entry)

[5] = biological target: T3, Peroxisome proliferator-activated receptor gamma (Homo sapiens) (UniProt P37231); test: PPARgamma activation in CV1 cells; assay type: cell-based; conditions: CV-1, filed as agonist
T3 sequence (whole entry): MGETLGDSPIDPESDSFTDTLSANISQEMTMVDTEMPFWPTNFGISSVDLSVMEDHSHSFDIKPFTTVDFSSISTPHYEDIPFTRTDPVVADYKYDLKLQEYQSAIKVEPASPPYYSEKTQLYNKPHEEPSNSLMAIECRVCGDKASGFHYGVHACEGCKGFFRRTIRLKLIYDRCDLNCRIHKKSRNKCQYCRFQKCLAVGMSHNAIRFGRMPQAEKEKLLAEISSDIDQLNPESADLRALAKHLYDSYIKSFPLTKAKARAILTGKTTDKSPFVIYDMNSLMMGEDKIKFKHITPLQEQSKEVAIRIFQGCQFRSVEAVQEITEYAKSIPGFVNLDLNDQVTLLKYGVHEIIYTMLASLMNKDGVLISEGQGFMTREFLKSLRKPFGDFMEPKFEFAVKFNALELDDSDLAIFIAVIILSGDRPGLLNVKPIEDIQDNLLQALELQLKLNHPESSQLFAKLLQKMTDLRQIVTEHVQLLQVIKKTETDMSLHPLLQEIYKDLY

Autotaxin = Autotaxin (Homo sapiens, UniProt Q13822); test: Inhibition of lysophospholipase D autotaxin; conditions: for residual activity: values are per cent of control

Chain of Lysophosphatidic acid receptor 1 (P61794 whole entry): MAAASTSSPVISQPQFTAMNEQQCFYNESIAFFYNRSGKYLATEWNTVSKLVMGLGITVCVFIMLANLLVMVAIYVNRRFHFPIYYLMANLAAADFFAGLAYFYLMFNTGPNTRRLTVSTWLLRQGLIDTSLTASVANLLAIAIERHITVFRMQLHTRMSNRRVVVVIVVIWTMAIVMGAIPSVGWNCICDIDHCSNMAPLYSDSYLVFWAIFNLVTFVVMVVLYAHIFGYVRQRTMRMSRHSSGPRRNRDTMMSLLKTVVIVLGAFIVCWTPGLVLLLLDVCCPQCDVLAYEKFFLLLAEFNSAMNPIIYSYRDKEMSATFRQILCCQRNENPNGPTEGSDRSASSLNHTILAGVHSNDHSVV

Row | Compound | Activity [5] | IC50 (Autotaxin) | residual activity (Autotaxin) | IC50 [4] | Ki [4] | IC50 [1] | Ki [1] | IC50 [2] | Ki [2] | EC50 [1] | EC50 [2] | Emax [2] | Emax [3] | EC50 [4]
1 | C/C=C/C/C=C/C/C=C/CCCCCCCCC1OCC(COP(=O)(O)O)O1 (stereo unspecified) | Agonist | 0.803 µM | 54% | – | – | – | – | – | – | 3.6 µM | 1.71 µM | 51% | 29% | 7.59 µM
2 | CCCCCCC/C=C/CCCCCCCC[C@H]1OC[C@@H](COP(O)(O)=S)O1 | Agonist | 0.403 µM | 60% | – | – | – | – | – | – | 1.56 µM | 1.32 µM | 87% | 78% | 0.265 µM
3 | CCCCCCCCc1ccc(CCCCCCC2OCC(COP(=O)(O)O)O2)cc1 (stereo unspecified) | Agonist | 0.106 µM | 10% | 0.504 µM | 0.171 µM | 4.66 µM | 1.93 µM | – | – | – | – | – | – | –
4 | CCCCCCC/C=C/CCCCCCCC[C@@H]1OC[C@H](COP(O)(O)=S)O1 | Agonist | 0.344 µM | 66% | – | – | – | – | – | – | 1.41 µM | 1.09 µM | 85% | 113% | 0.194 µM
5 | CCCCCCCCc1ccc(CCCCCCC2OCC(COP(O)(O)=S)O2)cc1 (stereo unspecified) | Agonist | 0.449 µM | 55% | – | – | – | – | – | – | – | – | – | 87% | 0.692 µM
6 | CCCCCCC/C=C/CCCCCCCC[C@H]1OC[C@H](COP(O)(O)=S)O1 | Agonist | 0.252 µM | 74% | – | – | – | – | – | – | 1.58 µM | 1.3 µM | 77% | 127% | 0.127 µM
7 | CCCCCCC/C=C/CCCCCCCCC1OCC(COP(O)(O)=S)O1 (stereo unspecified) | Agonist | 0.415 µM | 51% | – | – | – | – | – | – | 0.981 µM | 1.17 µM | 87% | 73% | 0.639 µM
8 | CCCCCCC/C=C/CCCCCCCC[C@@H]1OC[C@@H](COP(O)(O)=S)O1 | Agonist | 0.363 µM | 64% | – | – | – | – | – | – | 2.26 µM | 1.54 µM | 72% | 102% | 0.204 µM

More lines, main results first:

Row | Activity [5] | IC50 (Autotaxin) | residual activity (Autotaxin) | IC50 [4] | Ki [4] | IC50 [1] | Ki [1] | IC50 [2] | Ki [2] | Compound | EC50 [1] | EC50 [2] | Emax [2] | Emax [3] | EC50 [4]
9 | Agonist | 0.178 µM | 25% | 0.209 µM | 0.077 µM | – | – | – | – | CCCCCCC/C=C/CCCCCCCC[C@H]1OC[C@@H](COP(=O)(O)O)O1 | – | – | – | – | –
10 | Agonist | – | 26% | – | – | 1.11 µM | 0.652 µM | 7.43 µM | 0.745 µM | CCCCCCCCCCCCC1OCC(COP(=O)(O)O)O1 (stereo unspecified) | – | – | – | – | –
11 | Agonist | 0.238 µM | 46% | 0.484 µM | 0.241 µM | – | – | – | – | CCCCCCC/C=C/CCCCCCCC[C@@H]1OC[C@@H](COP(=O)(O)O)O1 | > 10 µM | > 10 µM | – | – | –
12 | Agonist | 0.141 µM | 30% | – | – | 0.915 µM | 0.497 µM | – | – | CCCCCCC/C=C/CCCCCCCCC1OCC(COP(=O)(O)O)O1 (stereo unspecified) | – | > 10 µM | – | – | –
13 | Agonist | 0.097 µM | 28% | 0.136 µM | 0.083 µM | – | – | – | – | CCCCCCC/C=C/CCCCCCCC[C@@H]1OC[C@H](COP(=O)(O)O)O1 | – | 1.71 µM | 42% | – | –
14 | Agonist | 0.12 µM | 30% | – | – | – | – | – | – | CCCCCCC/C=C/CCCCCCCC[C@H]1OC[C@H](COP(=O)(O)O)O1 | – | 1.17 µM | 39% | – | –
